The source of these data is patent US7186886B2, “Aliphatic acyl transferase genes” (International Flower Developments Proprietary Limited, priority 2000, dated 2007).

Series [1] is described as follows: Colour of anthocyanin solutions in McIlvaine buffer evaluated with Colour charts (Royal Horticulture Society). The format is physicochemical. The conditions noted are these: for Number in Colour chart at pH 5.3: McIlvaine buffer pH 5.3; for Number in Colour chart at pH 5.3 / Number in Colour chart at pH 5.6 / Number in Colour chart at pH 6.0: greater number = bluer, A = bluest within a number; for Number in Colour chart at pH 5.6: McIlvaine buffer pH 5.6; for Number in Colour chart at pH 6.0: McIlvaine buffer pH 6.0. The protocol:
Delphinidin 3,5-diglucoside, awobanin (delphinidin 3-(coumaroyl) glucoside-5-glucoside), malonyl-awobanin (delphinidin 3-(coumaroyl)glucoside-5-(malonyl) glucoside) were dissolved in McIlvaine buffer (pH 5.3, pH 5.6, pH 6.0) in concentrations of 0.1 mM, 0.3 mM, 0.5 mM, respectively, and colours of the solutions were evaluated using Colour charts (Royal Horticulture Society). Delphinidin 3,5-diglucoside can be obtained from its 3,5-diacetylglucoside form by removing the acetyl portion in alkaline hydrolysis reaction (Tetrahedron, 48, 4313–4326, 1992). Awobanin can be obtained from malonyl-awobanin by removing its 5-malonyl portion (Tetrahedron Lett. 24, 4863–4866, 1983). Malonyl-awobanin was obtained by extraction from plants using the method as set forth in Tetrahedron Lett. 24, 4863–4866, 1983. The greater the number in the Colour chart, the bluer the colour is. When the number is the same, symbol A represents the bluest colour.

Series [2] is described as follows: Malonyl transferase activity of E. coli-expressed gene product, shisonin as substrate, HPLC detection. The class given is biochemical. The protocol: Measurement of activity of malonyl transferase was conducted using reaction solution 100 μl (potassium phosphate of final concentration of 20 mM, pH 7.0, containing shisonin 10 μg, malonyl CoA 10 μg, and an enzyme sample to be measured, dissolved in 0.01% trifluoro acetic acid). After reaction was carried out at 30° C. for 20 minutes, the reaction was terminated by adding 200 μl of 0.05% TFA aqueous solution cooled on ice. Quantification of shisonin and malonyl-shisonin was conducted by reverse phase high performance liquid chromatography (DYNAMAX HPLC system) using a Shodex Asahipak ODP-50 4E column, and using a linear concentration gradient with 0.5% TFA solution as the solution and 0.5% TFA, 50% acetonitrile aqueous solution as the solution, such that concentration of the B solution was 45%, 45%, 55%, 100%, 100%, 45%, and 45%, at time 0, 3, 17, 18, 23, 24, and 30 minutes, respectively, after the start of separation, at a flow rate of 0.7 ml/min, using 50 μl of reaction solution, monitoring absorption at 520 nm. […]
Enzyme activity was measured using a supernatant (soluble fraction) obtained after centrifuging. […]
As in Example 7, using a plasmid constructed such that the PfMaT1 gene obtained in Example 9 can be expressed as a fusion protein fused with LacZ protein, the PfMaT1 gene was expressed in Escherichia coli as in Example 7, and enzyme activity was measured. […]

In the case of `O=C(O)CC(=O)OC[C@H]1O[C@@H](Oc2cc(O)cc3[o+]c(-c4cc(O)c(O)c(O)c4)c(O[C@@H]4O[C@H](COC(=O)/C=C/c5ccc(O)cc5)[C@@H](O)[C@H](O)[C@H]4O)cc23)[C@H](O)[C@@H](O)[C@@H]1O` [Malonyl-awobanin, delphinidin 3-(coumaroyl)glucoside-5-(malonyl) glucoside], the “Number in Colour chart at pH 5.3” value in series [1] (0.1 mM) was determined as 85C; in series [1] (0.3 mM), 92A; in series [1] (0.5 mM), 93B. In addition, the “Number in Colour chart at pH 5.6” value in series [1] (0.1 mM) came to 91B; in series [1] (0.3 mM), 93B. In addition, the “Number in Colour chart at pH 6.0” value is listed as 91B in series [1] (0.1 mM), 96C in series [1] (0.3 mM) and 96A in series [1] (0.5 mM). Also, the “Colour of solution compared among the three anthocyanins” value in series [1] (all concentrations and pH, versus delphinidin 3,5-diglucoside and awobanin) is given as “the bluest”.

`OC[C@H]1O[C@@H](Oc2cc3c(O[C@@H]4O[C@H](CO)[C@@H](O)[C@H](O)[C@H]4O)cc(O)cc3[o+]c2-c2cc(O)c(O)c(O)c2)[C@H](O)[C@@H](O)[C@@H]1O` [Delphinidin 3,5-diglucoside]: in series [1] (0.1 mM), the “Number in Colour chart at pH 5.3” value was 84C and the “Number in Colour chart at pH 5.6” value turned out to be 84C. For the same molecule, in series [1] (0.3 mM), the “Number in Colour chart at pH 5.3” value was 85A, the “Number in Colour chart at pH 5.6” value was determined as 86D and the “Number in Colour chart at pH 6.0” value was found to be 88C. Besides, in series [1] (0.5 mM), the “Number in Colour chart at pH 5.3” value came out at 86D, the “Number in Colour chart at pH 5.6” value was determined as 90B and the “Number in Colour chart at pH 6.0” value worked out at 88B/C.

On to `O=C(/C=C/c1ccc(O)cc1)OC[C@H]1O[C@@H](Oc2cc3c(O[C@@H]4O[C@H](CO)[C@@H](O)[C@H](O)[C@H]4O)cc(O)cc3[o+]c2-c2cc(O)c(O)c(O)c2)[C@H](O)[C@@H](O)[C@@H]1O` [Awobanin, delphinidin 3-(coumaroyl) glucoside-5-glucoside], for which, in series [1] (0.1 mM), the “Number in Colour chart at pH 5.3” value amounted to 85C, the “Number in Colour chart at pH 5.6” value is recorded as 85A and the “Number in Colour chart at pH 6.0” value is recorded as 91B. Besides, in series [1] (0.3 mM), the “Number in Colour chart at pH 5.3” value is reported as 86D and the “Number in Colour chart at pH 6.0” value came to 91A.

B1: SsMaT1: Salvia splendens malonyl transferase gene product (SEQ ID NO: 23), expressed in E. coli from pQE-30Xa-SsMaT1 (protein, listed as Salvia splendens)
chain: TTTTILETCHIPPPPAANDLSIPLSFFDIKWLHYHPVRRLLFYHHPSSKSQFLHTIVPHLKQSLSLALTHYLPVAGNLLYPSNTEKFPQLRYAAGDSVPVTIAESNSDFESLTGNHTRDADQFYDLLPPIPPIEEESDWKLINIFAVQITLFPGEGICIGFSNHHCLGDASSIVGFISAWGEINGIGGYEGFLSNHSDSLSLPIFDRSFINDPNKIDAIFWKVLSNMPLKTASFPLPTNSVSSTFLLRSSDIEKLKTATKSPASSFVAAAAFVWSCMVKSGDKSDENAPELFIMPADASGSVDPPMPENYFGNCIVSSVAQVERGKLAAEDGFAVAAEAIGGEIEGKLKNSDEILSGAENWMSDMFKCFGMSVLGVSGSPKFDLLKADFGWGKASKLEVLSIDGENHSMSLCSSSDFNGGLEVGLSLPSESMAAFEEVFSASMMAASGPASRSPALVEPL
modifications: possible His tag from pQE-30Xa
Turning to B1, the “Acyl transfer to shisonin with other acyl CoA substrates (new HPLC peak)” value in series [2] (acetyl CoA, methylmalonyl CoA, or succinyl CoA in place of malonyl CoA) is recorded as “a new peak in addition to shisonin was observed”. For the same molecule, the “Malonyl transferase activity (formation of malonyl-shisonin)” value in series [2] (shisonin and malonyl CoA, 30° C., 20 minutes, pH 7.0, soluble extract of expressing Escherichia coli) is listed as “malonyl-shisonin was produced”.
